Assay [1] has as its target T1, Frizzled-7 (Homo sapiens, UniProt O75084). It is filed as cell-based. The following applies: cho.
Assay [2] concerns the target T1, Frizzled-7. Nature of the assay: biochemical. In kind it is cell-based, CHO. The note with it: read-out: Kd.
Assay [3] concerns the target T1, Frizzled-7. As to the kind of experiment: Inhibition of Frizzled-7 in HEK293 cells expressing Wnt assessed as reduction in Wnt signaling by firefly luciferase reporter gene assay. It is filed as cell-based. A general note: Reporter assays use an easily measured gene product as a stand-in for the process of interest.
For assay [4], the target named is T1, Frizzled-7. The following applies: CHO.
Description: Binding affinity to recombinant human Frizzled-7 (Gln33 to Leu185 residues)/human IgG1 chimeric protein expressed in CHO cells assessed as association rate constant by SPR assay
The target in a further assay is Frizzled-1 (Homo sapiens, UniProt Q9UP38). Nature of the assay: Binding affinity to recombinant human Frizzled-1 (Gln73 to His253 residues)/human IgG1 chimeric protein expressed in mouse NS0 cells by SPR assay.
Assay [5] is described as follows: Binding affinity to recombinant human/mouse Frizzled-2 (Gln29 to Leu168 residues)/human IgG1 chimeric protein expressed in mouse NS0 cells by SPR assay. For orientation: Surface plasmon resonance follows binding to a sensor surface in real time, without labels.
In the next assay the target is Frizzled-5 (Homo sapiens, UniProt Q13467). Nature of the assay: Binding affinity to recombinant human Frizzled-5 (Ala27 to Pro167 residues)/human IgG1 chimeric protein expressed in mouse NS0 cells by SPR assay.
The next assay has as its target Frizzled-8 (Homo sapiens, UniProt Q9H461). As to the kind of experiment: Binding affinity to recombinant human Frizzled-8 (Ala25 to Pro172 residues)/human IgG1 chimeric protein expressed in CHO cells […] by SPR assay.
The target of a further assay is T2, Frizzled-4 (Homo sapiens, UniProt Q9ULV1).
T2 sequence (Q9ULV1 whole entry): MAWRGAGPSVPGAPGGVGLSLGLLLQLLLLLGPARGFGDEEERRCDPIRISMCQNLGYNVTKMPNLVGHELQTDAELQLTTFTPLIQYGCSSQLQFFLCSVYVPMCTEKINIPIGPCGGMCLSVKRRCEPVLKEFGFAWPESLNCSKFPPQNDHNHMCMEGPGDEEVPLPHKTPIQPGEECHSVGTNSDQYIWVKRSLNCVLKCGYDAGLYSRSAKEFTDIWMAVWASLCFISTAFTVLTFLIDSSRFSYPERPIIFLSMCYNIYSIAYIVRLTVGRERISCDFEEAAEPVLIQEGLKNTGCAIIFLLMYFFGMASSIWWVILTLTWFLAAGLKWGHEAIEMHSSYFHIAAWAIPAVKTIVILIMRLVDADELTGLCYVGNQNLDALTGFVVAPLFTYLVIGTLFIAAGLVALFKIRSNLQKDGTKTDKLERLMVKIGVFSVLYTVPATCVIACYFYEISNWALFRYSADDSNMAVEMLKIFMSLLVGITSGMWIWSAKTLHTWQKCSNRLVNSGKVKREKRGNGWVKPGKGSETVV
As to the kind of experiment: Binding affinity to recombinant human Frizzled-4 (Phe37 to Glu180 residues)/human IgG1 chimeric protein expressed in mouse NS0 cells by SPR assay.

The target of a further assay is T3, Frizzled-9 (Homo sapiens, UniProt O00144).
T3 sequence (O00144 whole entry): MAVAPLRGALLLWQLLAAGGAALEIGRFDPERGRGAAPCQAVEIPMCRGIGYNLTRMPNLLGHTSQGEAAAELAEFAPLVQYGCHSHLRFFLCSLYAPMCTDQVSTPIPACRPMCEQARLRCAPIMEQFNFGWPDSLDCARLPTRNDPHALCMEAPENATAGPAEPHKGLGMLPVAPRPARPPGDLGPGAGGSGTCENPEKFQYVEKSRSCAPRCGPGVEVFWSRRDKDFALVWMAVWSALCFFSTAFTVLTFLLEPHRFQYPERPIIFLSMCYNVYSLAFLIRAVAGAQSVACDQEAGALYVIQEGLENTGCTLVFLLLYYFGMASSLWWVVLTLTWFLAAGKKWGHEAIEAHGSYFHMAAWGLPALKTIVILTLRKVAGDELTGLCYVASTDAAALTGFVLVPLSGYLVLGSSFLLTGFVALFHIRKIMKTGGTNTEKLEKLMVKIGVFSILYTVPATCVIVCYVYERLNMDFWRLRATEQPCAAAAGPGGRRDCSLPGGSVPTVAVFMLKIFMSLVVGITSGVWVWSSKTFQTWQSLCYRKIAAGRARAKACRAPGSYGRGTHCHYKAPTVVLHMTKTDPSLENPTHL
As to the kind of experiment: Binding affinity to Frizzled-9 CRD (unknown origin).

Another assay has as its target T4, Frizzled-10 (Homo sapiens, UniProt Q9ULW2).
T4 sequence (Q9ULW2 whole entry): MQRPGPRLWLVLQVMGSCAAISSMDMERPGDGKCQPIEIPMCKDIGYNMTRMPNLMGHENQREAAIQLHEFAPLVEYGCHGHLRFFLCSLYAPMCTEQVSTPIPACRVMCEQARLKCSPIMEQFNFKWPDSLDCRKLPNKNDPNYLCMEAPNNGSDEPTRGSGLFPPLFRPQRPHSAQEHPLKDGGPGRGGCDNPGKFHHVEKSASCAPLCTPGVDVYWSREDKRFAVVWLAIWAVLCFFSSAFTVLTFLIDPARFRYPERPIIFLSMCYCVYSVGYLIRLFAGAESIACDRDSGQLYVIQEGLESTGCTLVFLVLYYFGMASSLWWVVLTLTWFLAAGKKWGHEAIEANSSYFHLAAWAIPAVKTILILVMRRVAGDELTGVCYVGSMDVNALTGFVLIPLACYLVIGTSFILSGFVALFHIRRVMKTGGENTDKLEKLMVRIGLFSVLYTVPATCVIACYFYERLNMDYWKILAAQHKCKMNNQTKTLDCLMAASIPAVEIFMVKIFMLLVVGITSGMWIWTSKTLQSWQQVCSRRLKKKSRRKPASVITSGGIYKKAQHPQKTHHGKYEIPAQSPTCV
As to the kind of experiment: Binding affinity to Frizzled-10 CRD (unknown origin).

For assay [6], the target named is T1, Frizzled-7. Nature of the assay: Binding affinity to recombinant human Frizzled-7 (Gln33 to Leu185 residues)/human IgG1 chimeric protein expressed in CHO cells assessed as reduction in interaction of TcdB with FZD7 incubated for 1 hr by competition ELISA. In kind it is cell-based. In general terms: ELISA stands for enzyme-linked immunosorbent assay.
Assay [7] can be described thus: Binding affinity to recombinant human/mouse Frizzled-2 (Gln29 to Leu168 residues)/human IgG1 chimeric protein expressed in mouse NS0 cells assessed as reduction in interaction of TcdB with FZD7 incubated for 1 hr by competition ELISA. It is filed as cell-based.

Bridge positions count the residues as written; N and C are the ends. Peptide text beside a SMILES is read from it. I, II: the chains in the order shown.

Frizzled-8, sequence (Q9H461 whole entry): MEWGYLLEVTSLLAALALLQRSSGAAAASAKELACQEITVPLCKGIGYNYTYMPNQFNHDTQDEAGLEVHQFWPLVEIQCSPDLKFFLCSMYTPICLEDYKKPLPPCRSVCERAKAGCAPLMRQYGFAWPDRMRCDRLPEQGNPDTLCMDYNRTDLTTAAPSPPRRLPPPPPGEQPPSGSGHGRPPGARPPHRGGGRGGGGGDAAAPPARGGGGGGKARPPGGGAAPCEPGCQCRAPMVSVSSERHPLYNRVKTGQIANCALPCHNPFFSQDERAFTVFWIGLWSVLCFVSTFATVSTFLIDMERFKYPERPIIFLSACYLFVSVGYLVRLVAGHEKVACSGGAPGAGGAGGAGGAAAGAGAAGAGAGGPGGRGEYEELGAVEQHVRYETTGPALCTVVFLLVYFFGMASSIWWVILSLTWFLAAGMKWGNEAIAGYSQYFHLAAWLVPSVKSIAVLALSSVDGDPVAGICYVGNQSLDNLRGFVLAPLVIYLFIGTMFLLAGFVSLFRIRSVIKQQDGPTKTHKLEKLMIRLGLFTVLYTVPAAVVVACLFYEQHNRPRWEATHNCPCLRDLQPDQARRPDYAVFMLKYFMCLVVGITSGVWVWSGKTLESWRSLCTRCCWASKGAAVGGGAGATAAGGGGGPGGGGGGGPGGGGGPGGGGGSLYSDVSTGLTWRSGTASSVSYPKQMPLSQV
Frizzled-1, sequence (Q9UP38 whole entry): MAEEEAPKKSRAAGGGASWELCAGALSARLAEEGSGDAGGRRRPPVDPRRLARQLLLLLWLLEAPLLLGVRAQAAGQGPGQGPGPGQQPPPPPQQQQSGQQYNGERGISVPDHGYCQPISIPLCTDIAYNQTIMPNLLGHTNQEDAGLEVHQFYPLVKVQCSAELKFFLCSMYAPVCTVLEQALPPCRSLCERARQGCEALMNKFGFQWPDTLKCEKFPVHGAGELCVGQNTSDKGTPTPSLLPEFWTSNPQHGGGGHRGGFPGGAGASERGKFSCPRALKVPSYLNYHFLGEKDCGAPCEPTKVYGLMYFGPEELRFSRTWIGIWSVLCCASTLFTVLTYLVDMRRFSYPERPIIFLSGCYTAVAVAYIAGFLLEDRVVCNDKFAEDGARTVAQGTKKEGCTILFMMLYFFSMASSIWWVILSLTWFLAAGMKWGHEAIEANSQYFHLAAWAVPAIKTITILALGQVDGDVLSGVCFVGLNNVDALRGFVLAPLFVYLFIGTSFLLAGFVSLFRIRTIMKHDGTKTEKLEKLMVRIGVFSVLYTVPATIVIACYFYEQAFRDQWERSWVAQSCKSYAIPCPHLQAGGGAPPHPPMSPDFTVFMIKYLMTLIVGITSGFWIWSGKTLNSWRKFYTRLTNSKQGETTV
Frizzled-5, sequence (Q13467 whole entry): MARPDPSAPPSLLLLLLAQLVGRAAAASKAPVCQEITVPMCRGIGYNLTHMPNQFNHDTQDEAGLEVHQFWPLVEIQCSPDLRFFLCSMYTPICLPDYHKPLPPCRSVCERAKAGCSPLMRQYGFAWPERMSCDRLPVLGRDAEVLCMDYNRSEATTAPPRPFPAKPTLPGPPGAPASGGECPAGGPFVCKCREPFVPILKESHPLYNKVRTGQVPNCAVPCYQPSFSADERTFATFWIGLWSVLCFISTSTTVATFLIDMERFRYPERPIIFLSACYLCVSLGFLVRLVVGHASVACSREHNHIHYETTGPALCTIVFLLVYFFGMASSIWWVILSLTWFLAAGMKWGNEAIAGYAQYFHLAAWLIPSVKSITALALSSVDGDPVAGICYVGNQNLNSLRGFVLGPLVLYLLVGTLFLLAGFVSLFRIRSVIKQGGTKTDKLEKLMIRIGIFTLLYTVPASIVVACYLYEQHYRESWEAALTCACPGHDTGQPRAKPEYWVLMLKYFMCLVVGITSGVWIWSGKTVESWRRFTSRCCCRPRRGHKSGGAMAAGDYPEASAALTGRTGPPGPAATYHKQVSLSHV

The IC50 is the concentration that inhibits the measured activity by half. As for `CC[C@H](C)[C@H](NC(=O)[C@H](Cc1cnc[nH]1)NC(=O)[C@H](CSSC[C@H](NC(=O)[C@H](Cc1c[nH]c2ccccc12)NC(=O)[C@H](CC(C)C)NC(=O)[C@H](CCCCN)NC(=O)[C@H](CC(C)C)NC(=O)[C@H](CC(=O)O)NC(=O)[C@H](CC(=O)O)NC(=O)[C@@H](NC(C)=O)[C@H](C)O)C(=O)N[C@@H](Cc1cnc[nH]1)C(=O)N[C@H](C(=O)N[C@@H](CCSC)C(=O)N[C@@H](Cc1ccc(O)cc1)C(N)=O)[C@@H](C)CC)NC(=O)[C@H](Cc1c[nH]c2ccccc12)NC(=O)[C@H](CC(C)C)NC(=O)[C@H](CCCCN)NC(=O)[C@H](CC(C)C)NC(=O)[C@H](CC(=O)O)NC(=O)[C@H](CC(=O)O)NC(=O)[C@@H](NC(C)=O)[C@H](C)O)C(=O)N[C@@H](CCSC)C(=O)N[C@@H](Cc1ccc(O)cc1)C(N)=O`, the Kd is 0.46 ×10⁻³ /s at Frizzled-7 [1] and 0.045 nM at Frizzled-7 [2]. Also, the concentration for half-maximal inhibition (IC50) at Frizzled-7 [3] stood at 4.8 nM. This compound gave a Ka at Frizzled-7 [4] of 103 ×10⁵ /M/s.

Consider `CC[C@H](C)[C@H](NC(=O)[C@H](Cc1cnc[nH]1)NC(=O)[C@H](CSSC[C@H](NC(=O)[C@H](Cc1c[nH]c2ccccc12)NC(=O)[C@H](CC(C)C)NC(=O)[C@H](CCC(=O)O)NC(=O)[C@H](CC(C)C)NC(=O)[C@H](CC(=O)O)NC(=O)[C@H](CC(=O)O)NC(=O)[C@H](CO)NC(C)=O)C(=O)N[C@@H](Cc1cnc[nH]1)C(=O)N[C@H](C(=O)N[C@@H](CCSC)C(=O)N[C@@H](Cc1ccc(O)cc1)C(N)=O)[C@@H](C)CC)NC(=O)[C@H](Cc1c[nH]c2ccccc12)NC(=O)[C@H](CC(C)C)NC(=O)[C@H](CCC(=O)O)NC(=O)[C@H](CC(C)C)NC(=O)[C@H](CC(=O)O)NC(=O)[C@H](CC(=O)O)NC(=O)[C@H](CO)NC(C)=O)C(=O)N[C@@H](CCSC)C(=O)N[C@@H](Cc1ccc(O)cc1)C(N)=O` (I: Ac-SDDLELWCHIMY-NH2 / II: Ac-SDDLELWCHIMY-NH2; disulfide I:8-II:8), for which the Kd on Frizzled-7 [1] is 0.57 ×10⁻³ /s; on Frizzled-7 [2] it was 0.044 nM. Moreover, at Frizzled-7 [3], the IC50 was 7.3 nM. This compound returned a Ka at Frizzled-7 [4] of 128 ×10⁵ /M/s.

For `CSCC[C@H](NC(=O)[C@@H](NC(=O)[C@H](Cc1cnc[nH]1)NC(=O)[C@H](CSSC[C@H](NC(=O)[C@H](Cc1c[nH]c2ccccc12)NC(=O)[C@H](Cc1ccccc1)NC(=O)[C@H](CCC(=O)O)NC(=O)[C@H](CC(C)C)NC(=O)[C@H](CC(=O)O)NC(=O)[C@H](CC(=O)O)NC(=O)[C@H](CO)NC(=O)[C@@H]1CCCN1C(=O)[C@H](CC(C)C)NC(C)=O)C(=O)N[C@@H](Cc1cnc[nH]1)C(=O)N[C@H](C(=O)N[C@@H](CCSC)C(=O)N[C@@H](Cc1ccc(O)cc1)C(N)=O)C(C)C)NC(=O)[C@H](Cc1c[nH]c2ccccc12)NC(=O)[C@H](Cc1ccccc1)NC(=O)[C@H](CCC(=O)O)NC(=O)[C@H](CC(C)C)NC(=O)[C@H](CC(=O)O)NC(=O)[C@H](CC(=O)O)NC(=O)[C@H](CO)NC(=O)[C@@H]1CCCN1C(=O)[C@H](CC(C)C)NC(C)=O)C(C)C)C(=O)N[C@@H](Cc1ccc(O)cc1)C(N)=O` (I: Ac-LPSDDLEFWCHVMY-NH2 / II: Ac-LPSDDLEFWCHVMY-NH2; disulfide I:10-II:10), the Kd is 5.6 ×10⁻³ /s at Frizzled-7 [1]; 1.18 nM at Frizzled-7 [2]; 2.42 nM on Frizzled-1; 1.46 nM in assay [5]; “Not Active” on Frizzled-5; “Not Active” at Frizzled-8. The Kd entry at Frizzled-4, on Frizzled-9 and at Frizzled-10 was “Not Active” throughout. Also, the IC50 at Frizzled-7 [3] came out at 32 nM. Also, the inhibition result (at Frizzled-7 [6]; in [7]) was “Dose-dependent effect” throughout. This compound returned a Ka at Frizzled-7 [4] of 47.5 ×10⁵ /M/s.

Regarding `CSCC[C@H](NC(=O)[C@@H](NC(=O)[C@H](Cc1cnc[nH]1)NC(=O)[C@H](CSSC[C@H](NC(=O)[C@H](Cc1c[nH]c2ccccc12)NC(=O)[C@H](Cc1ccccc1)NC(=O)[C@H](CCC(=O)O)NC(=O)[C@H](CC(C)C)NC(=O)[C@H](CC(=O)O)NC(=O)[C@H](CC(=O)O)NC(=O)[C@@H](NC(C)=O)[C@@H](C)O)C(=O)N[C@@H](Cc1cnc[nH]1)C(=O)N[C@H](C(=O)N[C@@H](CCSC)C(=O)N[C@@H](Cc1ccc(O)cc1)C(N)=O)C(C)C)NC(=O)[C@H](Cc1c[nH]c2ccccc12)NC(=O)[C@H](Cc1ccccc1)NC(=O)[C@H](CCC(=O)O)NC(=O)[C@H](CC(C)C)NC(=O)[C@H](CC(=O)O)NC(=O)[C@H](CC(=O)O)NC(=O)[C@@H](NC(C)=O)[C@@H](C)O)C(C)C)C(=O)N[C@@H](Cc1ccc(O)cc1)C(N)=O` (I: Ac-TDDLEFWCHVMY-NH2 / II: Ac-TDDLEFWCHVMY-NH2; disulfide I:8-II:8), the Kd on Frizzled-7 [1] was 0.72 ×10⁻³ /s; on Frizzled-7 [2] it was 0.14 nM. The Ka at Frizzled-7 [4] came out at 51.5 ×10⁵ /M/s.

Consider `CSCC[C@H](NC(=O)[C@@H](CC(C)(C)C)NC(=O)[C@H](Cc1cnc[nH]1)NC(=O)[C@H](CSSC[C@H](NC(=O)[C@H](Cc1c[nH]c2ccccc12)NC(=O)[C@H](Cc1ccccc1)NC(=O)[C@H](CCC(=O)O)NC(=O)[C@H](CC(C)C)NC(=O)[C@H](CC(=O)O)NC(=O)[C@H](CC(=O)O)NC(=O)[C@H](CO)NC(C)=O)C(=O)N[C@@H](Cc1cnc[nH]1)C(=O)N[C@H](CC(C)(C)C)C(=O)N[C@@H](CCSC)C(=O)N[C@@H](Cc1ccc(O)cc1)C(N)=O)NC(=O)[C@H](Cc1c[nH]c2ccccc12)NC(=O)[C@H](Cc1ccccc1)NC(=O)[C@H](CCC(=O)O)NC(=O)[C@H](CC(C)C)NC(=O)[C@H](CC(=O)O)NC(=O)[C@H](CC(=O)O)NC(=O)[C@H](CO)NC(C)=O)C(=O)N[C@@H](Cc1ccc(O)cc1)C(N)=O`, for which the Kd is 2.16 ×10⁻³ /s on Frizzled-7 [1] and 0.32 nM on Frizzled-7 [2] (cho). In addition, at Frizzled-7 [4], the Ka amounted to 68.8 ×10⁵ /M/s.

The values above are taken from ChEMBL document CHEMBL4373723 (J Med Chem, 2019).
